Data as given in PubChem BioAssay (NCI).
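Exposure lasted 48 hours, with cells grown in 96-well plates and compounds tested at five concentrations. Definition used: TGI = concentration required for complete inhibition of growth.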

Experiments:
Test in all cases: NCI tumour cell line growth inhibition, 48 h
HCT-15 colon = system: HCT-15 colon
NCI/ADR-RES ovarian = system: NCI/ADR-RES ovarian
SK-MEL-2 melanoma = system: SK-MEL-2 melanoma
UO-31 renal = system: UO-31 renal
OVCAR-3 ovarian = system: OVCAR-3 ovarian
UACC-62 melanoma = system: UACC-62 melanoma
NCI-H226 lung = system: NCI-H226 lung
MALME-3M melanoma = system: MALME-3M melanoma
SK-MEL-5 melanoma = system: SK-MEL-5 melanoma
HOP-62 NSCLC = system: HOP-62 NSCLC
SNB-19 CNS = system: SNB-19 CNS
M14 melanoma = system: M14 melanoma
SW-620 colon = system: SW-620 colon
786-0 renal = system: 786-0 renal
UACC-257 melanoma = system: UACC-257 melanoma
LOX IMVI melanoma = system: LOX IMVI melanoma
COLO 205 colon = system: COLO 205 colon
OVCAR-5 ovarian = system: OVCAR-5 ovarian
SF-268 CNS = system: SF-268 CNS
NCI-H522 lung = system: NCI-H522 lung
PC-3 prostate = system: PC-3 prostate
HT29 colon = system: HT29 colon
HOP-92 NSCLC = system: HOP-92 NSCLC
EKVX NSCLC = system: EKVX NSCLC
ACHN renal = system: ACHN renal
SN12C renal = system: SN12C renal
SK-OV-3 ovarian = system: SK-OV-3 ovarian
SNB-75 CNS = system: SNB-75 CNS
NCI-H460 lung = system: NCI-H460 lung
OVCAR-8 ovarian = system: OVCAR-8 ovarian
HCC-2998 colon = system: HCC-2998 colon
DU-145 prostate = system: DU-145 prostate
SF-539 CNS = system: SF-539 CNS
CAKI-1 renal = system: CAKI-1 renal
HL-60(TB) leukemia = system: HL-60(TB) leukemia
RXF 393 renal = system: RXF 393 renal
NCI-H23 lung = system: NCI-H23 lung
HS 578T breast = system: HS 578T breast
MDA-MB-435 = system: MDA-MB-435
MCF7 breast = system: MCF7 breast
K-562 leukemia = system: K-562 leukemia
RPMI-8226 leukemia = system: RPMI-8226 leukemia
SF-295 CNS = system: SF-295 CNS
MDA-N = system: MDA-N
A549 NSCLC = system: A549 NSCLC
HCT-116 colon = system: HCT-116 colon
MDA-MB-231 breast = system: MDA-MB-231 breast
IGROV1 ovarian = system: IGROV1 ovarian
MOLT-4 leukemia = system: MOLT-4 leukemia
KM12 colon = system: KM12 colon
SK-MEL-28 melanoma = system: SK-MEL-28 melanoma
U251 CNS = system: U251 CNS
CCRF-CEM leukemia = system: CCRF-CEM leukemia
SR leukemia = system: SR leukemia
OVCAR-4 ovarian = system: OVCAR-4 ovarian
A498 renal = system: A498 renal
BT-549 breast = system: BT-549 breast
TK-10 renal = system: TK-10 renal

`COc1ccc(/C(=N/O)c2ccccc2C2=Nc3ccccc3C(NCc3ccccc3)O2)cc1C` (stereo not given) showed a TGI (HCT-15 colon) of over 100 µM, a TGI (NCI/ADR-RES ovarian) of over 100 µM and a TGI (SK-MEL-2 melanoma) of over 100 µM. For the same compound, the TGI (UO-31 renal) was 67.5 µM, the TGI (OVCAR-3 ovarian) was over 100 µM and the TGI (UACC-62 melanoma) was 88.7 µM. The TGI (NCI-H226 lung) was over 100 µM, the TGI (MALME-3M melanoma) was 52.7 µM and the TGI (SK-MEL-5 melanoma) was 32.8 µM. For the same compound, the TGI (HOP-62 NSCLC) was over 100 µM, the TGI (SNB-19 CNS) was over 100 µM and the TGI (M14 melanoma) was over 100 µM. The TGI (SW-620 colon) was over 100 µM, the TGI (786-0 renal) was over 100 µM and the TGI (UACC-257 melanoma) was 41.9 µM. It also gave a TGI (LOX IMVI melanoma) of over 100 µM, a TGI (COLO 205 colon) of 38.9 µM and a TGI (OVCAR-5 ovarian) of over 100 µM. It also gave a TGI (SF-268 CNS) of over 100 µM, a TGI (NCI-H522 lung) of over 100 µM and a TGI (PC-3 prostate) of over 100 µM. The TGI (HT29 colon) was over 100 µM, the TGI (HOP-92 NSCLC) was 71.9 µM and the TGI (EKVX NSCLC) was over 100 µM. It also gave a TGI (ACHN renal) of over 100 µM, a TGI (SN12C renal) of over 100 µM and a TGI (SK-OV-3 ovarian) of 82.5 µM. For the same compound, the TGI (SNB-75 CNS) was 75.4 µM, the TGI (NCI-H460 lung) was over 100 µM and the TGI (OVCAR-8 ovarian) was 77.1 µM. The TGI (HCC-2998 colon) was over 100 µM, the TGI (DU-145 prostate) was over 100 µM and the TGI (SF-539 CNS) was over 100 µM. The TGI (CAKI-1 renal) was over 100 µM, the TGI (HL-60(TB) leukemia) was over 100 µM and the TGI (RXF 393 renal) was over 100 µM. For the same compound, the TGI (NCI-H23 lung) was over 100 µM, the TGI (HS 578T breast) was over 100 µM and the TGI (MDA-MB-435) was 90.4 µM. The TGI (MCF7 breast) was over 100 µM, the TGI (K-562 leukemia) was 97.4 µM and the TGI (RPMI-8226 leukemia) was over 100 µM. It also gave a TGI (SF-295 CNS) of 67.3 µM, a TGI (MDA-N) of over 100 µM and a TGI (A549 NSCLC) of over 100 µM. It also gave a TGI (HCT-116 colon) of over 100 µM, a TGI (MDA-MB-231 breast) of over 100 µM and a TGI (IGROV1 ovarian) of over 100 µM. It also gave a TGI (MOLT-4 leukemia) of over 100 µM, a TGI (KM12 colon) of over 100 µM and a TGI (SK-MEL-28 melanoma) of over 100 µM. The TGI (U251 CNS) was over 100 µM, the TGI (CCRF-CEM leukemia) was over 100 µM and the TGI (SR leukemia) was over 100 µM.
Compound `CCCCCc1cc2cc3c(c(O)c2c(=O)[nH]1)C1(CCC3)C(=O)c2c(O)ccc(O)c2C1=O` has a TGI (HCT-15 colon) of over 100 µM, a TGI (NCI/ADR-RES ovarian) of over 100 µM and a TGI (SK-MEL-2 melanoma) of over 100 µM. The TGI (UO-31 renal) was over 100 µM, the TGI (OVCAR-3 ovarian) was over 100 µM and the TGI (NCI-H226 lung) was over 100 µM. For the same compound, the TGI (MALME-3M melanoma) was over 100 µM, the TGI (OVCAR-4 ovarian) was over 100 µM and the TGI (A498 renal) was over 100 µM. For the same compound, the TGI (BT-549 breast) was over 100 µM, the TGI (SK-MEL-5 melanoma) was over 100 µM and the TGI (HOP-62 NSCLC) was over 100 µM. The TGI (SNB-19 CNS) was over 100 µM, the TGI (M14 melanoma) was over 100 µM and the TGI (SW-620 colon) was over 100 µM. It also gave a TGI (786-0 renal) of over 100 µM, a TGI (UACC-257 melanoma) of over 100 µM and a TGI (LOX IMVI melanoma) of over 100 µM. The TGI (COLO 205 colon) was over 100 µM, the TGI (OVCAR-5 ovarian) was over 100 µM and the TGI (SF-268 CNS) was over 100 µM. The TGI (NCI-H522 lung) was over 100 µM, the TGI (PC-3 prostate) was over 100 µM and the TGI (HT29 colon) was over 100 µM. The TGI (HOP-92 NSCLC) was over 100 µM, the TGI (EKVX NSCLC) was over 100 µM and the TGI (ACHN renal) was over 100 µM. For the same compound, the TGI (SN12C renal) was over 100 µM, the TGI (TK-10 renal) was over 100 µM and the TGI (SNB-75 CNS) was over 100 µM. For the same compound, the TGI (NCI-H460 lung) was over 100 µM, the TGI (OVCAR-8 ovarian) was over 100 µM and the TGI (HCC-2998 colon) was over 100 µM. For the same compound, the TGI (DU-145 prostate) was over 100 µM, the TGI (SF-539 CNS) was over 100 µM and the TGI (CAKI-1 renal) was over 100 µM. It also gave a TGI (HL-60(TB) leukemia) of over 100 µM, a TGI (RXF 393 renal) of over 100 µM and a TGI (NCI-H23 lung) of over 100 µM. For the same compound, the TGI (HS 578T breast) was over 100 µM, the TGI (MDA-MB-435) was over 100 µM and the TGI (MCF7 breast) was over 100 µM. The TGI (K-562 leukemia) was over 100 µM, the TGI (RPMI-8226 leukemia) was over 100 µM and the TGI (SF-295 CNS) was over 100 µM. The TGI (MDA-N) was over 100 µM, the TGI (A549 NSCLC) was over 100 µM and the TGI (HCT-116 colon) was over 100 µM. The TGI (MDA-MB-231 breast) was over 100 µM, the TGI (IGROV1 ovarian) was over 100 µM and the TGI (MOLT-4 leukemia) was over 100 µM. It also gave a TGI (KM12 colon) of over 100 µM, a TGI (SK-MEL-28 melanoma) of over 100 µM and a TGI (U251 CNS) of over 100 µM. For the same compound, the TGI (CCRF-CEM leukemia) was over 100 µM and the TGI (SR leukemia) was over 100 µM.
